Source: ChEMBL document CHEMBL5352385, “Marine natural products and their synthetic analogs as promising antibiofilm agents for antibiotics discovery and development” (Eur J Med Chem, 2022)
Where a SMILES comes first, the peptide text is derived from it. [ ]: non-standard residue; d: D form. ξ: configuration not given here. ξGly(tetradecyl) = CCCCCCCCCCCCCCC(N)C(=O)O

Columns and labels:
Staphylococcus aureus [1] = assay: Antibiofilm activity against methicillin-resistant Staphylococcus aureus ATCC 6538 at 100 ug/ml incubated for 24 hrs by crystal violet staining based microplate reader method relative to control; type: functional; details: dose 100 µg/ml
[2] = test system: Staphylococcus epidermidis; assay: Antibiofilm activity against Staphylococcus epidermidis RP62A; type: functional
Pseudomonas aeruginosa [3] = assay: Antibiofilm activity against Pseudomonas aeruginosa PA01 at 128 ug/ml relative to control; type: functional; details: dose 128 µg/ml
Escherichia coli = assay: Antibiofilm activity against Escherichia coli at 31.3 ug/ml relative to control; type: functional; details: dose 31.3 µg/ml
Staphylococcus aureus [4] = assay: Antibiofilm activity against methicillin-resistant Staphylococcus aureus CH 10850 at 33.2 ug/ml relative to control; type: functional; details: dose 33.2 µg/ml
Staphylococcus aureus [5] = assay: Antibiofilm activity against Staphylococcus aureus ATCC 6538 at 100 ug/ml incubated for 24 hrs by crystal violet staining based microplate reader method relative to control; type: functional; details: dose 100 µg/ml
Pseudomonas aeruginosa [6] = assay: Antibiofilm activity against Pseudomonas aeruginosa PA01 assessed as inhibition of biofilm formation at 800 ug/ml relative to control; type: functional; parameters: scale not given: the % may be the effect or the level left; details: dose 800 µg/ml
[7] = test system: Staphylococcus epidermidis; assay: Antibiofilm activity against […] incubated for 24 hrs; type: functional
Staphylococcus aureus [8] = assay: Antibiofilm activity against methicillin-resistant Staphylococcus aureus CH 10850 at 32 ug/ml relative to control; type: functional; details: dose 32 µg/ml
Vibrio anguillarum = assay: Antibiofilm activity against Vibrio anguillarum at 300 ug/ml relative to control; type: functional; details: dose 300 µg/ml
Pseudomonas aeruginosa [9] = assay: Antibiofilm activity against Pseudomonas aeruginosa at 300 ug/ml relative to control; type: functional; details: dose 300 µg/ml
Bacillus subtilis = assay: Antibiofilm activity against Bacillus subtilis at 300 ug/ml relative to control; type: functional; details: dose 300 µg/ml
Bacillus sp. = assay: Antibiofilm activity against Bacillus sp. 176 at 300 ug/ml relative to control; type: functional; details: dose 300 µg/ml
Candida albicans = assay: Antibiofilm activity against Candida albicans assessed as reduction in biofilm formation at >200 ug/ml measured after 48 hrs by crystal violet staining based analysis relative to control; type: functional; parameters: scale not given: the % may be the effect or the level left; details: dose > 200 µg/ml
Staphylococcus aureus [10] = assay: Antibiofilm activity against methicillin-resistant Staphylococcus aureus 33591 assessed as reduction in biofilm formation at 50 ug/ml measured after 24 hrs by crystal violet staining based analysis relative to control; type: functional; parameters: scale not given: the % may be the effect or the level left; details: dose 50 µg/ml
Staphylococcus aureus [11] = assay: Antibiofilm activity against Staphylococcus aureus ATCC 6538 at 12.5 ug/ml relative to control; type: functional; details: dose 12.5 µg/ml
Streptococcus mutans [12] = assay: Antibiofilm activity against Streptococcus mutans at 5 ug/ml relative to control; type: functional; details: dose 5 µg/ml
Pseudomonas aeruginosa [13] = assay: Antibiofilm activity against Pseudomonas aeruginosa assessed as inhibition of biofilm formation at 100 ug/ml incubated for 24 hrs by crystal violet staining based analysis relative to control; type: functional; parameters: scale not given: the % may be the effect or the level left; details: dose 100 µg/ml
[14] = Inhibition of quorum-sensing system in Staphylococcus epidermidis assessed as inhibition of AI-2 at 60 ug/ml by bioluminescence assay relative to control; details: dose 60.0 µg/ml
Acinetobacter baumannii [15] = assay: Antibiofilm activity against Acinetobacter baumannii ATCC 19606 assessed as reduction in biofilm formation incubated for 24 hrs by crystal violet staining based analysis; type: functional
Acinetobacter baumannii [16] = assay: Antibiofilm activity against Acinetobacter baumannii ATCC […] assessed as reduction in biofilm formation incubated for 24 hrs by crystal violet staining based analysis; type: functional
Streptococcus mutans [17] = assay: Antibiofilm activity against clinical isolate Streptococcus mutans 2.M7/4 assessed as inhibition of biofilm formation at 31.0 ug/ml relative to control; type: functional; parameters: scale not given: the % may be the effect or the level left; details: dose 31 µg/ml
Streptococcus mutans [18] = assay: Antibiofilm activity against Streptococcus mutans UA159 assessed as inhibition of biofilm formation at 31.0 ug/ml relative to control; type: functional; parameters: scale not given: the % may be the effect or the level left; details: dose 31 µg/ml
Staphylococcus aureus [19] = assay: Antibiofilm activity against methicillin-sensitive Staphylococcus aureus ATCC 35556 incubated for 24 hrs; type: functional
Staphylococcus aureus [20] = assay: Antibiofilm activity against methicillin-resistant Staphylococcus aureus ATCC 43866 incubated for 24 hrs; type: functional
Staphylococcus aureus [21] = assay: Antibiofilm activity against Staphylococcus aureus ATCC 29213 at 0.5 to 4 ug/ml relative to control; type: functional; details: dose 0.5-4 µg/ml; at 0.5 to 4 µg/mL
Staphylococcus aureus [22] = assay: Antibiofilm activity against methicillin-resistant Staphylococcus aureus CH 10850 at 50 ug/ml relative to control; type: functional; details: dose 50 µg/ml

Which Activity (Staphylococcus aureus [1]) does the source give for `CC(=O)OCC1=C[C@]2(C=C(C)C[C@@H](/C=C(\C)CCC=C(C)C)O2)O[C@@H]2C=C(C)C(=O)C[C@H]12` here?
The Activity was 50%.

With `CCCCCC1OC1C(O)CCCCCCCCCC(=O)O` (configuration not stated) as the compound, how does the MBIC [2] read?
Its MBIC is 32 µg/mL.

For `O=C1Nc2cc(Br)ccc2[C@@]1(c1c[nH]c2ccccc12)C1CNc2ccccc21` (some centres not stated), which Activity (Pseudomonas aeruginosa [3]) is on record?
The Activity was 41.76%.

Which Activity (Escherichia coli) does the source give for `NC1=N[C@]23CCCN2C(=O)c2cc(Br)c(Br)n2[C@@H]3N1` [DIBROMOPHAKELLIN] here?
Its Activity is 50%.

With `CC(=O)O[C@@H]1O[C@H]2OC(=O)C3=C(C)[C@@](C)([C@@]4(C)CCCC(C)(C)C4)CC[C@@H]1[C@H]32` as the compound, how does the Activity (Staphylococcus aureus [4]) read?
Its Activity is 50%.

Which Activity (Staphylococcus aureus [5]) does the source give for `CC(C)=CCC/C(C)=C/[C@@H]1CC(C)=C[C@]2(C=C(CO)[C@H]3CC(=O)C(C)=C[C@H]3O2)O1` here?
Its Activity is >75%.

Which Activity (Pseudomonas aeruginosa [6]) does the source give for `CC(=O)NCCc1ccc(O)cc1` here?
Its Activity is 28%.

Which MBIC [7] does the source give for `Cn1c(-c2nnc(-c3ccc(N)cc3)o2)cc(Br)c1Br` here?
The MBIC was 3.125 µg/mL.

Which Activity (Staphylococcus aureus [8]) does the source give for `NCC(c1c[nH]c2cc(F)ccc12)c1c[nH]c2cc(F)ccc12` here?
Its Activity is 61%.

With `CCCCCCCCCCCCCCC1NC(=O)C(C(C)CC)NC(=O)C(CC(C)C)NC(=O)C(CC(=O)OC)NC(=O)C(CC(C)C)NC(=O)C(CC(C)C)NC(=O)C(CC(C)C)NC(=O)C(CCC(=O)OC)NC1=O` (configuration not stated) (cyclo([ξGly(tetradecyl)]E(OMe)LLLD(OMe)LI); configuration not given here) as the compound, how does the Activity (Vibrio anguillarum) read?
Its Activity is >50%.

What about the Activity (Pseudomonas aeruginosa [9]) of the same compound?
The Activity was >50%.

What about the Activity (Bacillus subtilis) of the same compound?
The Activity was >50%.

And the Activity (Bacillus sp.)?
The Activity was >50%.

For `C/C=C/CCCC(C)/C(O)=C1\C(=O)[C@H](C(C)O)N(C)C1=O` (some centres not stated), which Activity (Candida albicans) is on record?
The Activity was 80%.

Which Activity (Staphylococcus aureus [5]) does the source give for `CC(C)=CCC/C(C)=C/[C@@H]1CC(C)=C[C@]2(C=C(CO)[C@H]3C[C@H](O)C(C)=C[C@H]3O2)O1` here?
The Activity was >95%.

For `COc1cc(-c2ccccn2)nc(CO)c1SC`, which Activity (Staphylococcus aureus [10]) is on record?
The Activity was >90%.

Which Activity (Staphylococcus aureus [11]) does the source give for `Cc1cc(O)c2c(c1)C(=O)c1cc(O)cc(O)c1C2=O` [EMODIN] here?
Its Activity is >50%.

And the Activity (Streptococcus mutans [12])?
Its Activity is 90%.

For `O=C(OCc1ccccc1)c1ccccc1` [BENZYL BENZOATE], which Activity (Pseudomonas aeruginosa [13]) is on record?
Its Activity is 37.7%.

Which MBIC [2] does the source give for `CCCCC/C=C/C(=O)CCCCCCCC(=O)O` here?
The MBIC was >128 µg/mL.

Which inhibition [14] does the source give for `CCCCCCCCCCCCCCC=O` here?
Its inhibition is > 50%.

For `COc1cc(-c2ccccn2)nc(/C=N/O)c1S(C)(=O)=O`, which MBIC (Acinetobacter baumannii [15]) is on record?
The MBIC was 8 µg/mL.

And the MBIC (Acinetobacter baumannii [16])?
Its MBIC is 32 µg/mL.

Which Activity (Staphylococcus aureus [5]) does the source give for `CC(C)=CCC/C(C)=C/[C@@H]1CC(C)=C[C@]2(C=C(CO)[C@H]3C[C@@H](O)C(C)=C[C@H]3O2)O1` here?
Its Activity is >95%.

For `CCCCCCCCC[C@H](CC(=O)NCCCCN)N1CC(=O)N[C@@H](Cc2ccccc2)C1=O`, which Activity (Streptococcus mutans [17]) is on record?
The Activity was 34.8%.

And the Activity (Streptococcus mutans [18])?
The Activity was 90%.

With `NCC(c1c[nH]c2cc(Br)ccc12)c1c[nH]c2cc(Br)ccc12` as the compound, how does the Activity (Staphylococcus aureus [8]) read?
Its Activity is 56.3%.

For `Cn1c(-c2nnc(-c3ccc(Cl)cc3Cl)o2)cc(Br)c1Br`, which MBIC (Staphylococcus aureus [19]) is on record?
Its MBIC is 0.39 µg/mL.

And the MBIC (Staphylococcus aureus [20])?
Its MBIC is 0.78 µg/mL.

What about the MBIC [7] of the same compound?
Its MBIC is 3.125 µg/mL.

Which Activity (Staphylococcus aureus [21]) does the source give for `COC(=O)CCN(CCCCCCCCCCCOCCc1ccc[n+](Cc2ccccc2)c1)C(=O)OC(C)(C)C.[Cl-]` here?
Its Activity is 25%.

Which Activity (Staphylococcus aureus [22]) does the source give for `CC(=O)O[C@@H]1O[C@H](OC(C)=O)[C@H]2C(=O)[C@@H]([C@@]3(C)CCCC(C)(C)C3)CC[C@@H]12` here?
The Activity was 97.7%.
